Measured values published in patent US12427139B2, “Applications for nicardipine in preparing anti-lung cancer products” (SHANGHAI JIAO TONG UNIVERSITY, priority 2015, dated 2025).

Columns and labels:
Type in all cases: cell-based
[1] = tested on: NCI-H446 small-cell lung cancer cells; assay: CellTiter-Glo luminescent cell viability assay, NCI-H446 drug screening plate; details: for IC50: NCI-H446 cells, CellTiter-Glo
Protocol: (§1) In example 1, CELLTITER-GLO was used to test nicardipine against non-small cell lung cancer. n) NCI-H524 cells and NCI-H446 cells were handled as described above, and NCI-H524 96-well cell culture plates and NCI-H446 96-well cell culture plates were obtained, respectively. The complete medium for NCI-H446 cells was RPMI-1640 (a live product), Cat #A1049101, with a cells/well density of 8000. a) DMSO was used to dilute the analyte nicardipine to 20 mM for use. b) 79 μL of the 20 mM analyte prepared in step a) was added to the first well in the first row of the dilution plate, and then 54 μL of DMSO solution was added to the second through ninth wells of the first row. 25 μL of solution was aspirated from the first to the second well, and after mixing well 25 μL of solution was aspirated from the second to the third well, and this was repeated until the 9th well in order to ensure that 3.16 dilution of the medication would be carried out one-by-one. b) 95 μl of cell-specific complete medium was added to the working plate, each medication to 9 wells. […] Testing • a) Before testing, the NCI-H524 96-well drug screening plate and the NCI-H446 96-well drug screening plate described in 3 above were stabilized to room temperature for 20-30 minutes. • b) An inverted microscope was used to observe the conditions of each group of cells in the culture plate and their death patterns, and any abnormal conditions were noted and retested. • c) 100 μl of CellTiter-Glo reagent (prepared as described in 1 above) was added to all drug screening plates and mixed evenly. • d) It was thoroughly oscillated in a 96-well microplate oscillator for 2 minutes to allow the cells to undergo full lysis. • e) It was stored away from light at room temperature for 15 minutes before carrying out luminescent signal detection to ensure signal stability. • f) An EnSpire multi-function plate reader was used at 570 nm to read the luminescent signals. • g) Data was processed and analyzed.

[2] = tested on: NCI-H810 human lung cancer cells; assay: CellTiter-Glo luminescent cell viability assay, NCI-H810 cells (same method)
Protocol: (§2) In the examples below, the product sources for the NCI-H524 non-small cell lung cancer cells, the NCI-H446 small-cell lung cancer cells, the SNU-449 human hepatoma cells, and the NCI-H810 human lung cancer cells, are as follows: c) The NCI-H524 96 well cell plates and the NCI-H446 96-well cell plates prepared in step 1 were removed from the incubator, and 10 μl of the cell culture media (10× final concentration) with varying drug concentrations as described in b) above was added to the NCI-H524 96-well cell culture and the NCI-H446 96-well cell culture plate row-by-row as shown in FIG. 1. It was placed into a CO2 incubator at 37° C. for 72 hours, obtaining the NCI-H524 96-well drug screening plate and the NCI-H446 96-well drug screening plate. • a) The CellTiter-Glo reagent buffer was thawed before using and stabilized to room temperature for use. • b) The CellTiter-Glo reagent frozen substrate was thawed before using and stabilized to room temperature for use. • c) 100 ml of stabilized CellTiter-Glo buffer was added to the container with CellTiter-Glo reagent frozen substrate to adequately resuspend it to form an enzyme/substrate mixture, also referred to as the CellTiter-Glo assay reagent. • d) It was gently mixed and vortexed and inverted multiple times to achieve a uniform solution. In general, the CellTiter-Glo substrate reagent will adequately dissolve within 1 minute. […]

[3] = tested on: NCI-H524 non-small cell lung cancer cells; assay: CellTiter-Glo luminescent cell viability assay, NCI-H524 drug screening plate; details: for IC50: NCI-H524 cells, CellTiter-Glo
Protocol: as §1, with “for NCI-H524” for “for NCI-H446”, “of 16000.” for “of 8000.”

[4] = tested on: SNU-449 human hepatoma cells; assay: CellTiter-Glo luminescent cell viability assay, SNU-449 cells (same method)
Protocol: as §2

IC50 ([1]; Homo sapiens, NCI-H446, 72 h): 18.4 µM | EC50 ([1]; Homo sapiens, FIG. 3, nicardipine sensitivity to small cell lung cancer (NCI-H446), 72 hours): 18 µM | IC50 ([1]; 72 hours): 18.4 µM | IC50 [2]: ≥ 100 µM | IC50 ([3]; Homo sapiens, NCI-H524, 72 h): 18.6 µM | EC50 ([3]; Homo sapiens, FIG. 2, nicardipine sensitivity to non-small cell lung cancer (NCI-H524), 72 hours): 20.3 µM | IC50 ([3]; 72 hours): 18.6 µM | IC50 [4]: ≥ 100 µM
Compound: COC(=O)C1=C(C)NC(C)=C(C(=O)OCCN(C)Cc2ccccc2)C1c1cccc([N+](=O)[O-])c1 (centres unmarked) [nicardipine]
